The values that follow come from publication PMC4303209, “A novel phosphatidylinositol 3-kinase (PI3K) inhibitor directs a potent FOXO-dependent, p53-independent cell cycle arrest phenotype characterized by the differential induction of a subset of FOXO-regulated genes” (Breast Cancer Research : BCR, 2014).

Series [1] relates to MDA-MB231 cells. The experiment in a line: Boyden chamber matrigel invasion assay. The class given is cell-based, human. Conditions: 72 hours; for capacity of MDA-MB231 cells to migrate through the matrigel: Figure S1E; for cell viability in invasion assay: MDA-MB231. The method, then:
Cell-invasive capacity was determined using two-compartment Boyden chamber matrigel invasion assay (BD BioCoat™ Matrigel™ Invasion Chambers, BD Biosciences 354480, BD Biosciences, San Jose, CA, USA). MDA-MB231 cells were allowed to invade for 72 hours at 37°C. All of the inserts and the liquid in each well of the companion plate were removed. 10% serum RPMI medium with 5 μM calcein was added to each and incubated for 1 hour (in darkness). Fluorescence was measured with a luminometer (Envision, PerkinElmer, Inc, Waltham, MA, USA) at 485/535 nm and the results were analyzed in Activity Base (IDBS, Guildford, UK).
(§1) Supplementary file 13058_2014_482_MOESM1_ESM.jpeg: Additional file 1: Figure S1.: Comparative analysis of ETP-45658 and PI-103. (A) Chemical structure of ETP-45658 and PI-103. (B) Physiochemical properties of ETP-45658 and PI-103, including molecular polar surface area (PSA), partition coefficient (LogP), ACD clogD and solubility at two different pH values including Lipinsky’s Rule of Five (RoF) analysis. (C) Inhibitory activity against PI3K and mTOR. The kinase activity of PI3K was measured by using the commercial PI3-kinase HTRF™ assay mTOR activity by LanthaScreen™. (D) ETP-45658 and PI-103 screen against a panel of 24 kinases. The value shown indicates kinase inhibition (percentage +/− standard deviation) at 10 μM. (E) Migration of MDA-MB231 cells in a two compartment Boyden chamber for 72 hours in the presence of DMSO, ETP-45658 or PI-103 (N = 3). (JPEG 662 KB)

Series [2] concerns the target mTOR (Homo sapiens, UniProt P42345). Kind of series: mTOR kinase assay (LanthaScreen). Conditions: for inhibitory activity against mTOR: Figure S1C. The class given is biochemical. The method, then:
(§2) The kinase activity of PI3Kα, PI3Kβ, PI3Kδ and PI3Kγ, mutant PI3Kα (H1047R and E542K) mammalian target of rapamycin (mTOR) and DNA-PK was measured as described previously. The protein kinase assays depicted in Figure S1 in Additional file 1 and Table S2 in Additional file 2 were performed at ProQinase, GmbH [18].
as §1

Series [3] concerns phosphorylated serine 473 AKT. Kind of series: Immunoblot of AKT Ser473 phosphorylation in MCF-7 or U2OS cells. The class given is cell-based, human. The protocol:
Figure 1 Cellular response to ETP-45658. […] Seventy-two hours post treatment, MTT assays were conducted. (B) Dose- and time-dependent analysis of Ser473 phosphorylation of AKT phosphorylation by 100nM ETP-45658 or PI-103 treatment. MCF-7 or U2OS cells were treated with the indicated concentrations (μM) of ETP-45658 (or PI-103) for four hours, then total protein was extracted and immunoblotted. For nuclear FOXO analysis, nuclear protein fractions were collected four hours post ETP-45658 (or PI-103) treatment. Nuclear FOXO3a levels were measure by immunoblotting. Nuclear fractions were confirmed by probing for lamin A/C. (C) FACS profile of MCF-7 or U2OS following 100 nM ETP-45658 treatment (20,000 events scored, N = 5). (D) Heat map for the top 100 differentially expressed genes based on hierarchical clustering using Euclidean distance metric. Red and green indicate genes that induced or repressed respectively by ETP-45658 or PI-103. Black indicates no change (N = 4). […] Numbers indicate number of genes that are exclusive to that particular category.
(In general: Immunoblotting shows a protein as a band on a membrane.)

Series [4] concerns PI3K. The experiment in a line: Kinase assay of PI3Kα, PI3Kβ, PI3Kδ, PI3Kγ and mutant PI3Kα (H1047R and E542K), PI3-kinase HTRF assay. The class given is biochemical. Conditions: Figure S1C. The method, then:
as §2, §1
Background: In TR-FRET formats the signal depends on donor and acceptor labels being close together.

The subject of series [5] is MCF-7 breast cancer cells. The experiment in a line: Quantitative real time PCR (qRT-PCR) of selected genes. Type of series: cell-based, human. The method, then:
Total RNA was extracted by using Tri-reagent (Sigma-Aldrich). Real-time PCR was performed on a CFX-96 PCR machine (BioRad) using the SsoFastSYBR™ green master mix (BioRad) and following the manufacturer’s guidelines. Data was analysed as described in [29] using the 2^-ΔΔCT methodology.
Figure 4 Genes regulated by FOXO transcription factor and validation of key differentially regulated genes. […] Gene expression in MCF-7 breast cancer cells treated at six and twelve hours with (B) 10 nM ETP-45658 or (C) 10 nM PI-103. In each graph, error bars indicate +/− standard deviation with each gene and condition evaluated in triplicate from N = 3 independent experiments. For each analysis P values are shown (<0.05 is considered significant).
Our genome-wide array and in vitro studies have elucidated that the predominant pathway activated following exposure to ETP-45658 (as well as following PI-103 treatment) was FOXO-mediated cell cycle arrest. […] To strengthen our findings further, we validated our genome-wide array results by quantitative real-time PCR (qRT-PCR). Based on our gene expression profiling data, we selected 11 differentially regulated key genes. […] In our last group, we selected the cyclin-dependent kinase inhibitor 1A (p21), which is regulated by both FOXO and p53, BCL2 binding component 3 (PUMA) and BCL2-associated X (BAX) that are regulated by p53. MCF-7 breast cancer cells were treated with ETP-45658 and six or twelve hours post treatment the total RNA was extracted. We evaluated the expression profile of each gene (normalised to GAPDH using the 2^-ΔΔCT method described in our Materials and methods section) (Figure 4B). […] This response was conserved between the MCF-7 breast cancer cell line (as we would predict based on our array studies) as well as the U2OS osteosarcoma cell line (data not shown).
Background: Real-time PCR tracks product formation cycle by cycle.

Setting [6] is: MCF-7 and U2OS, as early as 30 minutes post treatment.
[7] abbreviates: osteosarcoma cells (U2OS), by three hours post treatment.

With `Cn1ncc2c(N3CCOCC3)nc(-c3cccc(O)c3)nc21` [ETP-45658], the “capacity of MDA-MB231 cells to migrate through the matrigel” value in series [1] was “inhibited”. Besides, the “cell viability in invasion assay” value in series [1] is listed as “without significantly affecting cell viability”. In addition, the “inhibitory activity against mTOR” value in series [2] is listed as “inhibited”. The “potency against mTOR relative to PI-103” value in series [2] (compared to reference compound PI-103) is listed as “almost three times more potent”. The results for the “phosphorylated serine 473 AKT” value in series [3] (setting [6]) and in series [3] (setting [7]) were “significant decrease” and “unable to detect”, respectively. Also, in series [4], the “inhibitory activity against PI3K” value is given as “potently inhibited”. Moreover, the “NISCH expression (array and qRT-PCR)” value in series [5] is “significantly upregulated”. Also, the “qRT-PCR induction of p53-dependent genes” value in series [5] is listed as “no significant induction”. For the same molecule, the “qRT-PCR CCND1 transcription” value in series [5] (10 nM) is reported as “significantly reduced”. Further, in series [5] (10 nM, six or twelve hours), the “qRT-PCR expression of CCNG2, Cited2 and BRCA1” value is on record as “highly significant induction”. Also, the “qRT-PCR TRAIL, FASLG or BCL2L11 transcription” value is “no significant change” in series [5] (six hours post treatment) and “slight increase (less than two-fold)” in series [5] (twelve hours post treatment).
Turning to `Oc1cccc(-c2nc(N3CCOCC3)c3oc4ncccc4c3n2)c1` [PI-103], the “capacity of MDA-MB231 cells to migrate through the matrigel” value in series [1] is reported as “inhibited”. Further, the “cell viability in invasion assay” value in series [1] is “without significantly affecting cell viability”. For the same molecule, the “inhibitory activity against mTOR” value in series [2] is on record as “significantly less potent”. In addition, the “phosphorylated serine 473 AKT” value is on record as “significant decrease” in series [3] (setting [6]) and “unable to detect” in series [3] (setting [7]). Further, the “inhibitory activity against PI3K” value in series [4] is “slightly more effective”. The “NISCH expression (array and qRT-PCR)” value in series [5] was “downregulated”. Besides, the “qRT-PCR CCND1 transcription” value in series [5] (10 nM) was “significantly reduced”.
